Positions count from the first letter of the chain named.
Tests used:
[1] = target: T1, Discoidin domain-containing receptor 2 (Homo sapiens) (UniProt Q16832); assay: (§1) Selectivity interaction (ProQinase) EUB0000171b DDR2
T1 sequence (whole entry): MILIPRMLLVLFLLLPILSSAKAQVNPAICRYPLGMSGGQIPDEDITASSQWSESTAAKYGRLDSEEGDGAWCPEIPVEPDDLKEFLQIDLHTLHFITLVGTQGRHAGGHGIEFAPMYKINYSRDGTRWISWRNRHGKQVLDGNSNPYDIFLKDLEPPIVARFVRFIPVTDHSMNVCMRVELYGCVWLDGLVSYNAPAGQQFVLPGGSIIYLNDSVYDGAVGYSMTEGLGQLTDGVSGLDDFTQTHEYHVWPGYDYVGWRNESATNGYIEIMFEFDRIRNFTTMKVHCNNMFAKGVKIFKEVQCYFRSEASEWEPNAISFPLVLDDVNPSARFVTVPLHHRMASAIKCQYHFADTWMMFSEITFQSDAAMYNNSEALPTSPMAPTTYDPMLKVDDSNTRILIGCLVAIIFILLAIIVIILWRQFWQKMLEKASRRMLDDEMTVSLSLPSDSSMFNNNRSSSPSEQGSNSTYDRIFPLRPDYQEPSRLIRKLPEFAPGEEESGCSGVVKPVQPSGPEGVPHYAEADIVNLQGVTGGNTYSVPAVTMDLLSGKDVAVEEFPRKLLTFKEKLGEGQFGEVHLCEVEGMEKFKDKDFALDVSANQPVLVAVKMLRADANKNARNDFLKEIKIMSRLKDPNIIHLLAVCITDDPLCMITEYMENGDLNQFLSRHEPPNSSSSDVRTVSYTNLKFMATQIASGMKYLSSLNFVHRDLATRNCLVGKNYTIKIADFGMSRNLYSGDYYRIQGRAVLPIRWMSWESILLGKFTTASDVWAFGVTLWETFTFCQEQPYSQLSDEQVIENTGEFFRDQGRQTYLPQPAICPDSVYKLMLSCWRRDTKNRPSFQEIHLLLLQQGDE

[2] = system: T2, Discoidin domain-containing receptor 2 (Homo sapiens), Q16832 [N456S]; assay: as §1
T2 sequence (whole entry): T1 sequence (whole entry) with N456S

[3] = target: T3, Mitogen-activated protein kinase kinase kinase kinase 2 (Homo sapiens) (UniProt Q12851); assay: Selectivity interaction (ActivX KiNativ screen (kinase selectivity in THP-1 cell lysates)) EUB0000639a MAP4K2; format: subcellular; conditions: lysate, at 0.04 µM
T3 sequence (whole entry): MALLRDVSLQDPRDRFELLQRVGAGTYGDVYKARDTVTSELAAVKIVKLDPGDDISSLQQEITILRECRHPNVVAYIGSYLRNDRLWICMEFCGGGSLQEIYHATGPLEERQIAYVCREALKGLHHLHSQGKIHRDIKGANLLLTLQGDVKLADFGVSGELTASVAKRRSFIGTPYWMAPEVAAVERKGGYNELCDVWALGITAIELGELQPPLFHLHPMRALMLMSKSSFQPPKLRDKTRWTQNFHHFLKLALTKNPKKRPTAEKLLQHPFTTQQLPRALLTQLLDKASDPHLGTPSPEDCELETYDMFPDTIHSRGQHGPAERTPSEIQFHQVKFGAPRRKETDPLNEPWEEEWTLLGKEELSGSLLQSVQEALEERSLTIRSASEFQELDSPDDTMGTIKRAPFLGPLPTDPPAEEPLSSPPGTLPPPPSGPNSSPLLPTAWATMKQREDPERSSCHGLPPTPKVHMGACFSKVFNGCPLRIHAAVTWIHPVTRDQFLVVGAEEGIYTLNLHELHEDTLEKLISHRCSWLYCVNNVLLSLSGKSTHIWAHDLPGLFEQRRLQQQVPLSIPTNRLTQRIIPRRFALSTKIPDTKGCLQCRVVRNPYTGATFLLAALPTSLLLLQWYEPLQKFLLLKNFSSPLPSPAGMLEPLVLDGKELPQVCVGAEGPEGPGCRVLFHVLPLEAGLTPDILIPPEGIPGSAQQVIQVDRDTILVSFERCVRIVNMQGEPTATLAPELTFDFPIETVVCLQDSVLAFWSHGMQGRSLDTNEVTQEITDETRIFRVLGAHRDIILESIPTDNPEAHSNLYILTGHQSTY

% of control ([1]; at 1 µM) [%]	% of control ([1]; at 5 µM) [%]	% of control ([2]; at 1 µM) [%]	% of control ([2]; at 5 µM) [%]	% of inhibition [3] [%]	Compound
90	76	88	67	–	C=CC(=O)Nc1cccc(C(=O)Nc2ccc(Nc3cc(-c4[nH]c(SC)nc4C)ccn3)cc2)c1
–	–	–	–	-1	CC[C@@H]1[C@H](F)C(=O)N[C@@H]1COc1nccc2cc(C(N)=O)c(OC)cc12 [ZIMLOVISERTIB]
